Source: patent US20220296584A1, “Membrane Active Molecules” (priority 2017, published 2022)
Where “and” joins values, the source holds several entries; their conditions need not be identical. Identical values can stand only once. Like-named read-outs stand apart in the source and are kept apart here.

Assays:
Tadpoles = experiment: Tadpole movement suppression (anesthetic efficacy); format: in vivo
Experimental: Tadpoles were placed in a petri dish containing aquarium water. Four to eight tadpoles were placed in each petri dish. The aquarium water contained the specified test compound at the listed concentration. When the tadpoles stopped moving, a plastic rod was used to elicit motion once again by contact between the rod and tadpole. […] From this and the number of subjects, the percent of tadpoles in which movement was suppressed were calculated.
After 1 to 30 minutes, they were again contacted with a rod to ensure the anesthetic effect had worn off
In some examples, subanesthetic concentrations of ethanol were added into the aquarium water. Tadpoles in which movement was prevented with exposure to a test compound and ethanol but not with exposure to a test compound alone were classified as partial anesthetics.

mouse = experiment: Anesthetic effect in mice after subcutaneous or intravenous injection of aqueous solutions; format: in vivo
Experimental: Butyric acid was dissolved in water to form an 8 M solution. 0.5 mL of the 8 M solution of butyric acid was injected subcutaneously (at the back of the neck) into the mouse.
3-hydroxybutyric acid was dissolved in water to form 1 M, 1.5 M, and 2 M solutions. 0.2 mL of a 1.5 M solution of 3-hydroxybutyric acid was injected into a tail vein of a CD-1 mouse. […] This was repeated for at least 2 more times on subsequent days.
Ethylmalonic acid was dissolved in water to form 2 M, 3 M, and 4 M solutions. 0.2 mL of a 3 M solution of ethylmalonic acid was injected into a tail vein of a mouse. […] This was repeated for at least 2 more times on subsequent days.
Ethylmalonic acid was dissolved in water to form a 4 M solution. 0.5 mL of the 4 M solution of ethylmalonic acid was injected subcutaneously into the mouse.

CF-1 mice = experiment: Anticonvulsant test: intravenous metrazol (pentylenetetrazol) infusion, time to twitch and seizure; format: in vivo; conditions: individual CF-1 mouse (Entry)
Experimental: CF-1 mice were used in this study. Number 20 PE tubing to cannulate a mouse tail vein was used. An infusion pump was used to deliver a solution at a rate of 0.34 mL/min. A hemostat was used to prevent backflow in the PE tubing before the experiment stated. To begin the experiment, the hemostat that was clamped to the PE 20 tubing was removed, the infusion of the solution was started into the tail IV of the mouse, and the timer was started.
The study reflects the time in seconds from the start of the infusion to the time of twitch and onset of seizure, or 90 seconds, whichever is sooner. When the seizure occurs, the infusion is turned off.
As a control, metrazol (pentylenetetrazol) in a 0.5% solution (5 mg/mL) in water was prepared. Pentylenetetrazol is used as a control to study seizure phenomena in and to identify compounds that may control seizure susceptibility. Solutions of 8 M butyric acid and 1.5 M 3-hydroxybutyric acid were made.
The time to twitch and time to seizure of the mouse in seconds is recorded in Tables 3-5, below.

mice = conditions: intravenously; for Observed effect on the animals: 62.5 mM solution in intralipid
[1] = 8 M butyric acid solution plus metrazol
[2] = 1.5 M 3-hydroxybutyric acid solution plus metrazol
[3] = 0.5% metrazol tail vein infusion 0.34 mL/min

## CCCC(=O)O [Butyric acid]
Tadpoles; Concentration (mM): 62.5
  Movement suppressed (%): 100%
Tadpoles; Concentration (mM): 125
  Movement suppressed (%): 100%
Tadpoles; Concentration (mM): 250
  Movement suppressed (%): 100%
Tadpoles; Concentration (mM): 500
  Movement suppressed (%): 100%
mouse; 0.2 mL of 8 M solution in water, intravenously through mouse tail vein
  Lethality: lethal
mouse; 0.5 mL of 8 M solution in water, subcutaneously (back of the neck), mouse
  Time until mouse woke up: several hours later
CF-1 mice; [1]
  Butyric Acid and Metrazol Time to Seizures: 51 seconds and 50 seconds (2×) and 47 seconds and 57 seconds (3×) and 42 seconds and 66 seconds and 41 seconds and 44 seconds and 38 seconds and 65 seconds
  Butyric Acid and Metrazol Time to Twitch: 38 seconds and 42 seconds and 44 seconds and 50 seconds and 34 seconds (2×) and 53 seconds (2×) and 48 seconds and 36 seconds (2×) and 35 seconds (2×)

## CC(O)CC(=O)O (stereo not shown) [3-hydroxybutyric acid]
mouse; 0.2 mL of 1.5 M solution in water, tail vein, CD-1 mouse
  Observed effect on the mouse: became unconscious or anesthetic
mouse; 1 M solution in water, tail vein, CD-1 mouse
  Observed effect on the mouse: did not have any observable effect
mouse; 2 M solution in water, tail vein, CD-1 mouse
  Lethality: lethal
CF-1 mice; [2]
  3-Hydroxybutyric Acid and Metrazol Time to Seizures: 74 seconds and 53 seconds (3×) and 48 seconds (2×) and 65 seconds and 61 seconds
  3-Hydroxybutyric Acid and Metrazol Time to Twitch: 54 s and 49 s and 47 s and 38 s and 50 s and 45 s and 41 s and 56 s

## C1CCc2nnnn2CC1 [Metrazol, pentylenetetrazol, reference compound]
CF-1 mice; [3]
  Metrazol alone Time to Seizures: 43 seconds (2×) and 42 seconds (2×) and 59 seconds and 45 seconds and 39 seconds and 49 seconds (2×)
  Metrazol alone Time to Twitch: 34 seconds (2×) and 33 seconds and 36 seconds (2×) and 37 seconds and 52 seconds and 31 seconds and 43 seconds

## CCC(C(=O)O)C(=O)O [Ethyl Malonic Acid, 2-Ethylmalonic acid]
Tadpoles; Concentration (mM): 16
  Movement suppressed (%): 0%
Tadpoles; Concentration (mM): 62.5
  Movement suppressed (%): 0%
Tadpoles; Concentration (mM): 125
  Movement suppressed (%): 100%
Tadpoles; Concentration (mM): 250
  Movement suppressed (%): 100%
mouse; 0.2 mL of 3 M solution in water, tail vein, mouse
  Observed effect on the mouse: became unconscious
mouse; 0.5 mL of 4 M solution in water, subcutaneously, mouse
  Observed effect on the mouse: became sedated, anesthetized, or lose consciousness
mouse; 2 M solution in water, tail vein, mouse
  Observed effect on the mouse: did not have any observable effect
mouse; 4 M solution in water, tail vein, mouse
  Lethality: lethal

## CCCC(=O)OCC [ethyl butyrate]
mice
  Observed effect on the animals: lethargic and those loss coordination
mice; 250 mM solution in intralipid
  Lethality: lethal
mice; 1M solution in intralipid
  Lethality: lethal

## ethyl isovaleric acid
mice
  Observed effect on the animals: lethargic and those loss coordination

## CCOC(=O)[C@@H](O)c1ccccc1 [ethyl (S)-(+)-mandelate]
mice
  Observed effect on the animals: lethargic and those loss coordination
mice; 250 mM solution in intralipid
  Lethality: lethal
mice; 1M solution in intralipid
  Lethality: lethal

## CC(C)(O)CC(=O)O [3-Hydroxy-3-methylbutyric acid, 3-Hydroxy-3-methylbutanoic acid]
Tadpoles; Concentration (mM): 1.6
  Movement suppressed (%): 0%
Tadpoles; Concentration (mM): 6.25
  Movement suppressed (%): 0%
Tadpoles; Concentration (mM): 25
  Movement suppressed (%): 0%
Tadpoles; Concentration (mM): 50 + 150 EtOH
  Movement suppressed (%): 100%
Tadpoles; Concentration (mM): 100
  Movement suppressed (%): 100%

## CCOC(=O)C(CC)(C(=O)OCC)c1ccccc1 [diethyl ethylphenylmalonate]
mice
  Observed effect on the animals: lethargic and those loss coordination
mice; 250 mM solution in intralipid
  Lethality: lethal
mice; 1M solution in intralipid
  Lethality: lethal

## CCOC(=O)C(CC)C(=O)OCC [diethyl ethyl malonate, Diethyl ethyl malonate]
mice
  Observed effect on the animals: lethargic and those loss coordination
mice; 250 mM solution in intralipid
  Lethality: lethal
mice; 1M solution in intralipid
  Lethality: lethal

## NC(=O)C[C@H](N)C(=O)O [L-Asparagine, Asparagine]
Tadpoles; Concentration (mM): 100
  Movement suppressed (%): 0%
Tadpoles; Concentration (mM): 100 + 150 EtOH
  Movement suppressed (%): 66%

## CC(CC(=O)O)C(=O)O (stereo not shown) [Methylsuccinic acid]
Tadpoles; Concentration (mM): 250 + 150 EtOH
  Movement suppressed (%): 43%

## CCC(C)CC(=O)O (stereo not shown) [3-Methylvaleric acid, 3-Methylpentanoic acid]
Tadpoles; Concentration (mM): 20
  Movement suppressed (%): 25%
Tadpoles; Concentration (mM): 20 + 150 EtOH
  Movement suppressed (%): 66%
